A word on the EC50: it is the concentration needed to bring the measured effect to its halfway point.

Consider 16 compounds from patent US12486269B2 (Aconcagua Bio, Inc., priority 2024, dated 2025).

For test [1], the target named is T1, COS-7/AMY3 (human calcitonin receptor (CTR) and RAMP3) (Homo sapiens, UniProt O60896+P30988).
T1 construct: expressed in transfected cells; host or cells: COS-7
As to the kind of experiment: Amylin Receptor cAMP Assay II. It counts as cell-based. Conditions: values marked **: Amylin Receptor cAMP Assay II; COS-7/AMY3 cells, cAMP dynamic 2 kit, 30 min; read-out: Amylin Receptor cAMP Stimulation Activity: EC50. Summed up: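 Agonist-induced cAMP was quantified by HTRF ratio at 665/615 nm and expressed as % of the window from vehicle to MAX control. Stimulation lasted 30 min at 37 °C in HBSS/20 mM HEPES/0.5 mM IBMX/0.1% casein, using stable human CTR+RAMP3 (AMY3) COS-7 cells at 2000 per well.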

Test [2] deals with T2, human calcitonin receptor (CTR) (Homo sapiens, UniProt P30988).
T2 construct: expressed in transfected cells; host or cells: COS-7 (COS7-human CTR Clone #2)
T2 sequence (P30988 25-474): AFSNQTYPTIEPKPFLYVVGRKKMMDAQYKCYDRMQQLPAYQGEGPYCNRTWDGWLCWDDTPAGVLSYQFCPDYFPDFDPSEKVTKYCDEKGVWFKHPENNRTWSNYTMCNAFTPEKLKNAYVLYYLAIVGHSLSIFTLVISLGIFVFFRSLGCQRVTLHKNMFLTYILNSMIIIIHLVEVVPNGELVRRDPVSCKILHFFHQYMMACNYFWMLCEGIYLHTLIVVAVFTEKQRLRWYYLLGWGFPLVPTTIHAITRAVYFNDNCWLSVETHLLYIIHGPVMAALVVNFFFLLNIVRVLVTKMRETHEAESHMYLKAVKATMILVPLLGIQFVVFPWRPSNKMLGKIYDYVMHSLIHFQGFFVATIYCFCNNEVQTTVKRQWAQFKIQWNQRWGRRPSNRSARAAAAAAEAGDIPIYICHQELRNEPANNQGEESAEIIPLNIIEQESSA
As to the kind of experiment: Calcitonin Receptor (CTR) cAMP Assay. The format is cell-based. As to conditions: COS7-human CTR Clone #2 stable cell line, cAMP dynamic 2 kit, 30 min; read-out: Calcitonin Receptor cAMP Stimulation Activity: EC50. Summed up: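 cAMP accumulation was measured by HTRF cAMP dynamic 2 read at 665/615 nm, 1 h at room temperature, with results scaled between vehicle and positive control. Before detection, COS7-human CTR stable cells were stimulated 30 min at 37 °C with compound (4-fold dilutions) in IBMX-containing HBSS/HEPES/casein buffer.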

T1 sequence (O60896 24-148, one chain of several): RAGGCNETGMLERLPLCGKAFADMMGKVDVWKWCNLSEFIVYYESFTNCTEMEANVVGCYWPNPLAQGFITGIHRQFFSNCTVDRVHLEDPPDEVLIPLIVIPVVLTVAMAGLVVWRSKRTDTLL

As for `O=C1c2c(nc(CCc3ccc(F)cc3)c(-c3noc(=O)[nH]3)c2-c2cc3ccnc(NCc4ccc(Cl)c(F)c4)c3s2)[C@@H]2CCCN12` [Compound 147], the EC50 in test [1] amounted to 51.9 nM; in test [2], 2.8 nM.

Consider `COc1cccc2c1CC[C@H]2Nc1nccc2cc(-c3c4c(nc(C[C@@H]5COc6cc(F)ccc65)c3-c3n[nH]c(=O)o3)[C@@H]3CCCN3C4=O)sc12` [Compound 218, 5-((S)-2-(((S)-6-fluoro-2,3-dihydrobenzofuran-3-yl)methyl)-4-(7-(((R)-4-methoxy-2,3-dihydro-1H-inden-1-yl)amino)thieno[2,3-c]pyridin-2-yl)-5-oxo-7,8,9,9a-tetrahydro-5H-pyrido[2,3-a]pyrrolizin-3-yl)-1,3,4-oxadiazol-2(3H)-one], for which the EC50 in test [1] worked out at 89.3 nM; in test [2], 11.5 nM.

In the case of `COc1cccc2c1CC[C@H]2Nc1nccc2cc(-c3c4c(nc(CCc5ccc(F)cc5)c3-c3n[nH]c(=O)o3)[C@@H]3CCCN3C4=O)sc12` [Compound 230, 5-((S)-2-(4-fluorophenethyl)-4-(7-(((R)-4-methoxy-2,3-dihydro-1H-inden-1-yl)amino)thieno[2,3-c]pyridin-2-yl)-5-oxo-7,8,9,9a-tetrahydro-5H-pyrido[2,3-a]pyrrolizin-3-yl)-1,3,4-oxadiazol-2(3H)-one], the results for the EC50 in test [1] and in test [2] were 17.4 nM and 0.51 nM, respectively.

Consider `COc1c(F)ccc2c1CC[C@H]2Nc1nccc2cc(-c3c4c(nc(CCc5ccc(F)cc5)c3-c3n[nH]c(=O)o3)C35CC(CN3C4=O)C5)sc12` [Compound 189, (R)-5-(4-(7-((5-fluoro-4-methoxy-2,3-dihydro-1H-inden-1-yl)amino)thieno[2,3-c]pyridin-2-yl)-2-(4-fluorophenethyl)-5-oxo-8,9-dihydro-5H,7H-8,9a-methanopyrido[2,3-a]pyrrolizin-3-yl)-1,3,4-oxadiazol-2(3H)-one], for which the results for the EC50 in test [1] and in test [2] were 0.213 nM and 0.0262 nM, respectively.

As to `O=C1c2c(nc(CCc3ccc(F)cc3)c(-c3noc(=O)[nH]3)c2-c2ccc3c(c2)CC[C@H]3OCc2ccc(F)c(F)c2)[C@@H]2CCCN12` [Compound 113], the results for the concentration giving a half-maximal response (EC50) in test [1] and in test [2] were 1120 nM and 271 nM, respectively.

As for `O=C1c2c(nc(CCc3ccc(F)cc3)c(-c3noc(=O)[nH]3)c2-c2cc3ccnc(NCc4ccc(F)c(F)c4)c3s2)[C@@H]2CCCN12` [Compound 130], the EC50 in test [1] was found to be 38.3 nM; in test [2], 3.06 nM.

In the case of `C[C@@H](Nc1nccc2cc(-c3c4c(nc(CCc5ccc(F)cc5)c3-c3n[nH]c(=O)o3)[C@@H]3CCCN3C4=O)sc12)c1ccc(F)cc1F` [Compound 228, 5-((S)-4-(7-(((R)-1-(2,4-difluorophenyl)ethyl)amino)thieno[2,3-c]pyridin-2-yl)-2-(4-fluorophenethyl)-5-oxo-7,8,9,9a-tetrahydro-5H-pyrido[2,3-a]pyrrolizin-3-yl)-1,3,4-oxadiazol-2(3H)-one], the values for the EC50 in test [1] and in test [2] were 3030 nM and 25.7 nM, respectively.

Turning to `COc1cccc2c1CC[C@H]2Nc1nccc2cc(-c3c4c(nc(C[C@H]5COc6cc(F)ccc65)c3-c3n[nH]c(=O)o3)[C@@H]3CCCN3C4=O)sc12` [Compound 217, 5-((S)-2-(((R)-6-fluoro-2,3-dihydrobenzofuran-3-yl)methyl)-4-(7-(((R)-4-methoxy-2,3-dihydro-1H-inden-1-yl)amino)thieno[2,3-c]pyridin-2-yl)-5-oxo-7,8,9,9a-tetrahydro-5H-pyrido[2,3-a]pyrrolizin-3-yl)-1,3,4-oxadiazol-2(3H)-one], the results for the EC50 in test [1] and in test [2] were 47.8 nM and 0.706 nM, respectively.

Take `O=C1c2c(nc(CCc3ccc(F)cc3)c(-c3noc(=O)[nH]3)c2-c2cc3ccnc(NCc4ccc(F)c(Cl)c4)c3s2)[C@@H]2CCCN12` [Compound 146]: the EC50 was 54.1 nM in test [1] and 3.18 nM in test [2].

As to `COc1cccc2c1CC[C@H]2Nc1nccc2cc(-c3c4c(nc(CCc5ccc(F)cc5)c3-c3cc(=O)[nH]o3)[C@@H]3CCCN3C4=O)sc12` [Compound 150, 5-((S)-2-(4-fluorophenethyl)-4-(7-(((R)-4-methoxy-2,3-dihydro-1H-inden-1-yl)amino)thieno[2,3-c]pyridin-2-yl)-5-oxo-7,8,9,9a-tetrahydro-5H-pyrido[2,3-a]pyrrolizin-3-yl)isoxazol-3(2H)-one], the values for the EC50 in test [1] and in test [2] were 25.4 nM and 1.06 nM, respectively.

With `N#Cc1ccc(Cn2c(=O)oc3cc(-c4c(-c5n[nH]c(=O)o5)c(CCc5ccc(F)cc5)nc5c4S(=O)(=O)N4CCC[C@@H]54)ccc32)nc1` [Compound 213, (S)-6-((6-(2-(4-fluorophenethyl)-5,5-dioxido-3-(5-oxo-4,5-dihydro-1,3,4-oxadiazol-2-yl)-7,8,9,9a-tetrahydropyrrolo[1′,2′:2,3]isothiazolo[4,5-b]pyridin-4-yl)-2-oxobenzo[d]oxazol-3(2H)-yl)methyl)nicotinonitrile], the results for the EC50 in test [1] and in test [2] were 53.1 nM and 0.786 nM, respectively.

Take `O=C(NCc1ccc(F)c(F)c1)c1ccc(-c2c3c(nc(CCc4ccc(F)cc4)c2-c2noc(=O)[nH]2)[C@@H]2CCCN2C3=O)s1` [Compound 101]: the concentration giving a half-maximal response (EC50) was 101 nM in test [1] and 12.9 nM in test [2].

As to `COc1c(F)ccc2c1CC[C@H]2Nc1nccc2cc(-c3c4c(nc(CCc5cccc(F)c5)c3-c3n[nH]c(=O)o3)C35CC(CN3C4=O)C5)sc12` [Compound 275, (R)-5-(4-(7-((5-fluoro-4-methoxy-2,3-dihydro-1H-inden-1-yl)amino)thieno[2,3-c]pyridin-2-yl)-2-(3-fluorophenethyl)-5-oxo-8,9-dihydro-5H,7H-8,9a-methanopyrido[2,3-a]pyrrolizin-3-yl)-1,3,4-oxadiazol-2(3H)-one], the EC50 in test [1] is 0.394 nM; in test [2], 0.0262 nM.

For the compound `COc1c(F)ccc2c1CC[C@H]2Nc1nccc2cc(-c3c4c(nc(CCc5ccccc5Cl)c3-c3n[nH]c(=O)o3)C35CC(CN3C4=O)C5)sc12` [Compound 278, (R)-5-(2-(2-chlorophenethyl)-4-(7-((5-fluoro-4-methoxy-2,3-dihydro-1H-inden-1-yl)amino)thieno[2,3-c]pyridin-2-yl)-5-oxo-8,9-dihydro-5H,7H-8,9a-methanopyrido[2,3-a]pyrrolizin-3-yl)-1,3,4-oxadiazol-2(3H)-one], the half-maximal effective concentration (EC50) in test [1] was found to be 0.517 nM; in test [2], 0.0636 nM.

Regarding `COc1cccc2c1CC[C@H]2Nc1cc(C(F)(F)F)cn2cc(-c3c4c(nc(CCc5ccc(F)cc5)c3-c3n[nH]c(=O)o3)[C@@H]3CCCN3C4=O)nc12` [Compound 216, 5-((S)-2-(4-fluorophenethyl)-4-(8-(((R)-4-methoxy-2,3-dihydro-1H-inden-1-yl)amino)-6-(trifluoromethyl)imidazo[1,2-a]pyridin-2-yl)-5-oxo-7,8,9,9a-tetrahydro-5H-pyrido[2,3-a]pyrrolizin-3-yl)-1,3,4-oxadiazol-2(3H)-one], the figures for the concentration giving a half-maximal response (EC50) in test [1] and in test [2] were 1340 nM and 152 nM, respectively.

In the case of `O=C1c2c(nc(CCc3ccc(F)cc3)c(-c3n[nH]c(=O)o3)c2-c2cc3ccnc(N[C@@H]4CCc5c4ccc(F)c5OC(F)F)c3s2)C23CC(CN12)C3` [Compound 285, (R)-5-(4-(7-((4-(difluoromethoxy)-5-fluoro-2,3-dihydro-1H-inden-1-yl)amino)thieno[2,3-c]pyridin-2-yl)-2-(4-fluorophenethyl)-5-oxo-5,7,8,9-tetrahydro-8,9a-methanopyrido[2,3-a]pyrrolizin-3-yl)-1,3,4-oxadiazol-2(3H)-one], the EC50 in test [1] is 0.208 nM; in test [2], 0.0136 nM.
